Experimental data from US20030144345A1, “Treatment of metabolic diseases with soraphen derivatives” (priority 2001, published 2003).

Key:
[1] = tested on: Wistar rats; assay: Lipid utilization by indirect calorimetry; assay type: in vivo, rat
Excerpt: b) Indirect calorimetry. Substrate utilization can be measured indirectly from respiratory gas exchanges. The method is based on the measurement of oxygen (O2) consumption and carbon-dioxide (CO2) release, both originating from the oxidation of the energetic substrates that progressively release the chemical energy stored in the carbon-hydrogen bonds of carbohydrates, lipids (and proteins). The amounts of carbohydrate and lipid being oxidized in the body at any given time can be calculated from the volumes of 02 consumption and CO2 exhalation by laboratory animals (and humans) in metabolic chambers. For a review of the methodology and the theoretical basis of indirect calorimetry, see Ferrannini, Metabolism, 37, 287-301, 1988.
An established, commercially available metabolic chamber apparatus (Oxymax, columbus Instruments, Ohio) was used to determine the gas exchange of vehicle-treated and compound (Ia)-treated Wistar rats in order to make precise and noninvasive measurements of the changes in the nature of the energetic substrate being oxidized by Wistar rats. Table 5 summarizes the data of the calculated lipid utilization determined for animals treated with two doses of compound (Ia), 10 and 30 mg/kg, administered subcutaneously 30 min. before starting the gas exchange measurements.

[2] = tested on: HepG2 cells; assay: Fatty acid (palmitate) oxidation assay with human liver hepatoma cells HepG2; assay type: cell-based; details: HepG2, 10 μM
Description: For routine passaging, HepG2 cells (American Type Culture Collection, ATCC) were grown in T75 flasks (Falcon, #353136) in 15 ml of Dulbecco's modified Eagle medium (DMEM, Sigma, #D5796), containing 10% heat inactivated fetal bovine serum (FBS, Summit Biotechnology, #S-100-05) and 1% Penicillin/Streptomycin (Sigma, #P4333). […] The cells were passaged once per week by trypsinization and an additional change of medium was done after 3 to 4 days after passaging.

With `CO[C@H]1CCCC[C@@H](c2ccccc2)OC(=O)[C@@H](C)C2(O)O[C@H]([C@@H](C)[C@H](O)[C@H]2OC)[C@@H](C)/C=C/[C@H]1OC` [Cpd (Ia), Soraphen A 1-α] the “% increase over vehicle” value ([1]; 10 mg/kg s.c., 33.5 min) was 12.6%, the Accumulated lipid utilization ([1]; 10 mg/kg s.c., 33.5 min) was 0.24 g/kg body weight and the “% increase over vehicle” value ([1]; 10 mg/kg s.c., 67 min) was 9.6%. The Accumulated lipid utilization ([1]; 10 mg/kg s.c., 67 min) was 0.49 g/kg body weight, the “% increase over vehicle” value ([1]; 10 mg/kg s.c., 100.5 min) was 9.8% and the Accumulated lipid utilization ([1]; 10 mg/kg s.c., 100.5 min) was 0.76 g/kg body weight. The “% increase over vehicle” value ([1]; 10 mg/kg s.c., 134 min) was 9.8%, the Accumulated lipid utilization ([1]; 10 mg/kg s.c., 134 min) was 1.03 g/kg body weight and the “% increase over vehicle” value ([1]; 10 mg/kg s.c., 167.5 min) was 9.2%. The Accumulated lipid utilization ([1]; 10 mg/kg s.c., 167.5 min) was 1.31 g/kg body weight, the “% increase over vehicle” value ([1]; 10 mg/kg s.c., 201 min) was 8.4% and the Accumulated lipid utilization ([1]; 10 mg/kg s.c., 201 min) was 1.61 g/kg body weight. For the same molecule, the “% increase over vehicle” value ([1]; 10 mg/kg s.c., 234.5 min) was 7.8%, the Accumulated lipid utilization ([1]; 10 mg/kg s.c., 234.5 min) was 1.89 g/kg body weight and the “% increase over vehicle” value ([1]; 10 mg/kg s.c., 268 min) was 7.9%. For the same molecule, the Accumulated lipid utilization ([1]; 10 mg/kg s.c., 268 min) was 2.17 g/kg body weight, the “% increase over vehicle” value ([1]; 10 mg/kg s.c., 301.5 min) was 7.7% and the Accumulated lipid utilization ([1]; 10 mg/kg s.c., 301.5 min) was 2.44 g/kg body weight. For the same molecule, the “% increase over vehicle” value ([1]; 10 mg/kg s.c., 335 min) was 7.2%, the Accumulated lipid utilization ([1]; 10 mg/kg s.c., 335 min) was 2.73 g/kg body weight and the “% increase over vehicle” value ([1]; 10 mg/kg s.c., 368.5 min) was 6.3%. For the same molecule, the Accumulated lipid utilization ([1]; 10 mg/kg s.c., 368.5 min) was 3.03 g/kg body weight, the “% increase over vehicle” value ([1]; 30 mg/kg s.c., 33.5 min) was 28.4% and the Accumulated lipid utilization ([1]; 30 mg/kg s.c., 33.5 min) was 0.27 g/kg body weight. The “% increase over vehicle” value ([1]; 30 mg/kg s.c., 67 min) was 19.2%, the Accumulated lipid utilization ([1]; 30 mg/kg s.c., 67 min) was 0.54 g/kg body weight and the “% increase over vehicle” value ([1]; 30 mg/kg s.c., 100.5 min) was 14.5%. For the same molecule, the Accumulated lipid utilization ([1]; 30 mg/kg s.c., 100.5 min) was 0.79 g/kg body weight, the “% increase over vehicle” value ([1]; 30 mg/kg s.c., 134 min) was 13.2% and the Accumulated lipid utilization ([1]; 30 mg/kg s.c., 134 min) was 1.06 g/kg body weight. The “% increase over vehicle” value ([1]; 30 mg/kg s.c., 167.5 min) was 12.5%, the Accumulated lipid utilization ([1]; 30 mg/kg s.c., 167.5 min) was 1.35 g/kg body weight and the “% increase over vehicle” value ([1]; 30 mg/kg s.c., 201 min) was 11.8%. For the same molecule, the Accumulated lipid utilization ([1]; 30 mg/kg s.c., 201 min) was 1.66 g/kg body weight, the “% increase over vehicle” value ([1]; 30 mg/kg s.c., 234.5 min) was 11.7% and the Accumulated lipid utilization ([1]; 30 mg/kg s.c., 234.5 min) was 1.96 g/kg body weight. For the same molecule, the “% increase over vehicle” value ([1]; 30 mg/kg s.c., 268 min) was 12.2%, the Accumulated lipid utilization ([1]; 30 mg/kg s.c., 268 min) was 2.26 g/kg body weight and the “% increase over vehicle” value ([1]; 30 mg/kg s.c., 301.5 min) was 12.5%. For the same molecule, the Accumulated lipid utilization ([1]; 30 mg/kg s.c., 301.5 min) was 2.55 g/kg body weight, the “% increase over vehicle” value ([1]; 30 mg/kg s.c., 335 min) was 12.3% and the Accumulated lipid utilization ([1]; 30 mg/kg s.c., 335 min) was 2.86 g/kg body weight. The “% increase over vehicle” value ([1]; 30 mg/kg s.c., 368.5 min) was 11.5%, the Accumulated lipid utilization ([1]; 30 mg/kg s.c., 368.5 min) was 3.18 g/kg body weight and the “Duration of effect on lipid oxidation” value ([1]; 10 and 30 mg/kg s.c.) was “at least 6 hours”. The “Fold stimulation over palmitate oxidation rate in the absence of test compounds” value [2] was 3.5 fold and the Palmitate oxidation rate [2] was 13.7 +/− 0.7 pmol · h^−1 · well^−1.
